Results from patent US11214803B2, “Modulators of YAP1 expression” (Ionis Pharmaceuticals, Inc., priority 2019, dated 2022).
Strand notation (5' to 3'): a small letter for the sugar, then the base; units joined by * are phosphorothioate-linked, units joined directly phosphodiester-linked; [ ] holds rarer units or linkages, { } end groups; capitals alone tell only the bases. k = constrained ethyl (cEt); [5mC] = 5-methylcytosine; d = 2'-deoxy (DNA)

Test system: Yap1 mRNA
Experiment: Antisense inhibition of human Yap1 in A-431 cells by cEt gapmers, single dose (Example 2, RTS4814)
Type: cell-based
Method in brief: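 A-431 cells (5,000/well) took up 2,000 nM 3-10-3 cEt gapmer by free uptake for ~48 h. Yap1 mRNA was quantified by qRT-PCR with primer probe set RTS4814, normalized to RIBOGREEN total RNA, and reported as % of untreated control.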

[1] = Table 33, Yap1 mRNA, percent of untreated control, 3-10-3 cEt gapmers targeting SEQ ID NO.: 1, and 2
[2] = Table 19, A-431 cells, 5,000 cells per well, free uptake, 2,000 nM modified oligonucleotide, approx. 48 hours, RTS4814, normalized to RIBOGREEN, Yap1 mRNA as percent of untreated control
[3] = Table 32, Yap1 mRNA, percent of untreated control, 3-10-3 cEt gapmers targeting SEQ ID NO.: 1, and 2
[4] = Table 20, Yap1 mRNA, percent of untreated control, 3-10-3 cEt gapmers targeting SEQ ID NO.: 1 and 2
[5] = Table 23, Yap1 mRNA as percent of untreated control, 3-10-3 cEt gapmers, single dose
[6] = Table 18, A-431 cells, 5,000 cells per well, free uptake, 2,000 nM modified oligonucleotide, approx. 48 hours, RTS4814, normalized to RIBOGREEN, Yap1 mRNA as percent of untreated control
[7] = Table 22, Yap1 mRNA as percent of untreated control, 3-10-3 cEt gapmers, single dose

**Q.** How did the “YAP1 (% UTC)” value [1] turn out when “1074131 (kG*kG*k[5mC]*d[5mC]*d[5mC]*d[5mC]*dG*d[5mC]*dA*dT*d[5mC]*d[5mC]*d[5mC]*k[5mC]*k[5mC]*kG; antisense) [compound 1074131]” was run?
**A.** The value was 72 % UTC.

**Q.** For “1074277 (antisense kG*kT*k[5mC]*dT*dA*dG*d[5mC]*d[5mC]*dA*dA*dG*dA*dG*kG*kT*kG) [Compound 1074277]”, which “YAP1 (% UTC)” value [2] is on record?
**A.** Its value is 18 % UTC.

**Q.** How did the “YAP1 (% UTC)” value [3] turn out when “1075890 (antisense kG*kA*kT*dT*dA*dA*dA*dA*dG*dT*dA*dG*dG*k[5mC]*k[5mC]*k[5mC]) [compound 1075890]” was run?
**A.** Its value is 92 % UTC.

**Q.** With “1075942 (kT*kG*kA*d[5mC]*dT*dA*dT*dA*d[5mC]*dA*dT*dG*dG*kT*kG*kA; antisense) [Compound 1075942]” as the substance, how does the “YAP1 (% UTC)” value [4] read?
**A.** The value was 46 % UTC.

**Q.** With “1074921 (antisense k[5mC]*kA*k[5mC]*dT*d[5mC]*dA*dA*dG*dT*dT*dA*d[5mC]*dA*kT*k[5mC]*k[5mC]) [Compound 1074921]” as the substance, how does the “YAP1 (% UTC)” value [5] read?
**A.** The value was 65 % UTC.

**Q.** With “1075623 (k[5mC]*kA*kT*dA*dA*dT*d[5mC]*dA*dA*dA*dA*dT*dG*kG*kG*k[5mC]; antisense) [Compound 1075623]” as the substance, how does the “YAP1 (% UTC)” value (Table 21, Yap1 mRNA, percent of untreated control, 3-10-3 cEt gapmers targeting SEQ ID NO.: 1 and 2) read?
**A.** Its value is 48 % UTC.

**Q.** With “1076361 (kT*kG*kG*dG*dA*dA*dA*dA*dG*d[5mC]*dT*dA*d[5mC]*k[5mC]*kA*k[5mC]; antisense) [Compound 1076361]” as the substance, how does the “YAP1 (% UTC)” value [5] read?
**A.** Its value is 87 % UTC.

**Q.** “1075243 (antisense k[5mC]*kT*kT*dA*dG*dT*dA*dA*dG*dA*dA*dT*dT*kG*kT*k[5mC]) [Compound 1075243]” was tested. Which “YAP1 (% UTC)” value (Table 25, Yap1 mRNA as percent of untreated control, 3-10-3 cEt gapmers targeting SEQ ID NO.: 1, and 2) did it give?
**A.** Its value is 4 % UTC.

**Q.** Which “YAP1 (% UTC)” value [6] does the source give for “1074692 (antisense k[5mC]*k[5mC]*k[5mC]*d[5mC]*d[5mC]*d[5mC]*d[5mC]*dA*dA*dA*d[5mC]*dT*dT*kT*k[5mC]*k[5mC]) [Compound 1074692]” here?
**A.** Its value is 101 % UTC.

**Q.** How did the “YAP1 (% UTC)” value [2] turn out when “1074693 (antisense k[5mC]*k[5mC]*k[5mC]*d[5mC]*d[5mC]*d[5mC]*d[5mC]*d[5mC]*dA*dA*dA*d[5mC]*dT*kT*kT*k[5mC]) [Compound 1074693]” was run?
**A.** Its value is 92 % UTC.

**Q.** How did the “YAP1 (% UTC)” value [4] turn out when “1075430 (antisense k[5mC]*kT*kT*dA*dA*d[5mC]*dT*dA*dA*d[5mC]*dT*dT*dG*kA*k[5mC]*k[5mC]) [Compound 1075430]” was run?
**A.** Its value is 96 % UTC.

**Q.** How did the “YAP1 (% UTC)” value (Yap1 mRNA as percent of untreated control, A-431 cells, 3-10-3 cEt gapmers targeting SEQ ID NO.: 1, and 2, Table 30) turn out when “1076368 (antisense k[5mC]*kA*kT*dT*dT*dT*dA*dT*dG*dT*dA*dA*dG*kG*k[5mC]*k[5mC]) [compound 1076368]” was run?
**A.** The value was 15 % UTC.

**Q.** Which “YAP1 (% UTC)” value (Table 6, A-431 cells, 5,000 cells per well, free uptake, 2,000 nM modified oligonucleotide, approx. 48 hours, RTS4814, normalized to RIBOGREEN, Yap1 mRNA relative to untreated control cells) does the source give for “716471 (k[5mC]*k[5mC]*kT*dA*d[5mC]*dT*d[5mC]*dA*d[5mC]*dT*dG*dA*dA*kT*kT*k[5mC]; antisense) [Compound 716471]” here?
**A.** Its value is 48 % UTC.

**Q.** With “1076211 (kA*kA*kT*dT*dT*dA*dT*dA*dT*dG*d[5mC]*dT*d[5mC]*k[5mC]*k[5mC]*kT; antisense) [compound 1076211]” as the substance, how does the “YAP1 (% UTC)” value [1] read?
**A.** Its value is 22 % UTC.

**Q.** “1074501 (kA*k[5mC]*kT*dA*d[5mC]*dA*dA*dT*dA*dA*d[5mC]*d[5mC]*dA*kT*k[5mC]*k[5mC]; antisense) [Compound 1074501]” was tested. Which “YAP1 (% UTC)” value [2] did it give?
**A.** The value was 9 % UTC.

**Q.** For “1076338 (antisense k[5mC]*kA*kT*dT*dA*dA*dA*d[5mC]*d[5mC]*dA*dG*dG*dG*kA*k[5mC]*kT) [compound 1076338]”, which “YAP1 (% UTC)” value [3] is on record?
**A.** The value was 33 % UTC.

**Q.** Which “YAP1 (% UTC)” value [6] does the source give for “1074724 (antisense kG*kG*kG*dT*dA*dA*dA*dG*dG*dA*dA*dG*dA*kT*k[5mC]*kT) [Compound 1074724]” here?
**A.** The value was 22 % UTC.

**Q.** “1074948 (antisense kG*kA*kG*dT*dT*d[5mC]*d[5mC]*dA*dA*dA*dA*d[5mC]*d[5mC]*k[5mC]*kT*kT) [Compound 1074948]” was tested. Which “YAP1 (% UTC)” value [6] did it give?
**A.** The value was 61 % UTC.

**Q.** With “716475 (k[5mC]*kT*kT*d[5mC]*d[5mC]*dA*dA*dA*dA*d[5mC]*dT*dA*dA*kG*kG*k[5mC]; antisense) [Compound 716475]” as the substance, how does the “YAP1 (% UTC)” value (A-431 cells, 5,000 cells per well, free uptake, 2,000 nM modified oligonucleotide, approx. 48 hours, RTS4814, normalized to RIBOGREEN, Table 4, asterisk (*) = targets amplicon region of primer probe set) read?
**A.** Its value is 63 % UTC.

**Q.** For “1076520 (antisense kA*kA*kT*dT*dA*dT*dA*dT*dG*d[5mC]*dA*dG*d[5mC]*kA*kG*k[5mC]) [Compound 1076520]”, which “YAP1 (% UTC)” value [7] is on record?
**A.** The value was 21 % UTC.

**Q.** How did the “YAP1 (% UTC)” value [7] turn out when “1075624 (kA*kT*k[5mC]*dT*dA*dT*dA*dA*d[5mC]*d[5mC]*d[5mC]*dT*dT*kA*kT*kT; antisense) [Compound 1075624]” was run?
**A.** Its value is 91 % UTC.
